Test [1] relates to hippocampus of apoE4-KI mice. As to the kind of experiment: RNA-Seq analysis of hippocampal tissue of apoE4-KI mice. Format: in vivo. As to the method:
RNA-Seq analysis of hippocampal tissue. Twelve-month-old apoE3-KI and apoE4-KI mice received daily i.p. injections of vehicle or bumetanide (0.2 mg/kg body weight) for 60 days. Mice were perfused with 0.9% saline, and the hippocampus was dissected and homogenized in Trizol reagent. Total RNA was extracted and purified with the Qiagen RNeasy Micro kit, which included a DNase treatment. cDNA was generated from full-length RNA (50 ng per sample) with the NuGEN RNA-Seq V2 kit, which uses the single primer isothermal amplification method to deplete ribosomal RNA, and sheared by Covaris to yield fragments of uniform size. The NuGen Ultralow system V2 was used for adding adapters and for barcoding and amplification. The resulting RNA libraries were purified with Agencourt XP magnetic beads, and quantified by qPCR after quality control with an Agilent Bioanalyzer. The libraries were pooled and sequenced with a HiSeq 4000 instrument (Illumina) for single-end (SE50) sequencing. Sequence data were aligned with the STAR short read aligner^33 and counts per feature were obtained with the feautureCounts function from the Subread package^34. After alignment, transcripts not shared in the GSE15222 and Syn3157255-MayoEGWAS databases were discarded, as were genes with less than one count per million in two or more samples^35.
The DESeq pipeline was used to assess DE of the remaining 11,877 transcripts. Genes below a P value of 0.05 were considered DE for future pathway analysis. After count normalization with DESeq, data were rld transformed (vsn package), and clustering was done on the DE genes with the pheatmap package. PCA was applied to the rld-transformed DE genes. The DE signatures of drugs were analyzed with Ingenuity Pathway Analysis software. Ontology analysis was done using the reference set from the Ingenuity Knowledge Base including direct and indirect gene relationships. For analysis of rank changes of apoE-genotype-specific signature genes of AD, the raw count data from the 11,877 transcripts were rank transformed, and for each gene the average rank of vehicle-treated samples was subtracted from that of bumetanide-treated samples.

In test [2] the test system is hippocampal cells of apoE4-KI mice. As to the kind of experiment: Single-nucleus RNA-seq of hippocampus of apoE4-KI mice. Format: in vivo. On the procedure:
Single-Nucleus RNA-Seq Library Preparation and Sequencing. Twelve-month-old apoE3-KI and apoE4-KI mice received daily i.p. injections of vehicle or bumetanide (0.2 mg/kg body weight) for 60 days. […] Mouse hippocampi were acutely dissected on ice. Dissected hippocampi were placed in 2 mL Hibernate A®/B27®/GlutaMAX™ (HEB) medium in a 5 mL tube. The HEB medium was removed to a 15 mL conical and kept on ice. 2 mL of chilled lysis buffer (10 mM Tris-HCl, 10 mM NaCl, 3 mM MgCl2, and 0.1% Nonidet™ P40 Substitute in Nuclease-Free Water) were added to the tissue, and the hippocampi were homogenized by suctioning 10× through a 21G needle. After homogenization, the tissue was lysed on ice for 15 min, swirling 2-3×during this incubation period. The reserved chilled HEB media was then returned to the lysed tissue solution, and the tissue was further triturated with 5-7 passes through a 1 mL pipette. A 30 μm cell strainer (MACS SmartStrainer; Miltenyi Biotech 130-110-915) was washed with 1 mL of PBS, and the lysed tissue solution was filtered through the strainer to remove debris and clumps. Filtered nuclei were centrifuged at 500 ref for 5 min at 4° C. […]
Single-Nucleus RNA-Seq Alignment, Clustering and Cell Type Identification. […] Reads from each sample were aligned to this genome and aggregated using the 10×Cellranger pipeline with no modifications. […] Genes with detected expression in at least 3 nuclei, and nuclei with at least 200 detected genes and a maximum of 2400 were retained for analysis for a total of Nuclei with a mitochondrial percentage of less than 0.0025 were retained for future analysis for a total of 27,415 cells. Highly variable genes were calculated via the FindVariableGenes function with the parameters: x.low.cutoff=0.0123, x.high.cutoff =3, y.cutoff=0.5 for a total of 2578 highly variable genes. […] PCAElbow Plot was used to plot the cumulative standard deviations of each principal component the significance of the association of each gene with each principal component was assessed via the JackStraw and JackStrawPlot function. […]

Each structure is given as a SMILES string.

Take `CCCCNc1cc(C(=O)O)cc(S(N)(=O)=O)c1Oc1ccccc1` [bumetanide, 3-(butylamino)-4-phenoxy-5-sulfamoylbenzoic acid]: in test [1] (DE genes P<0.05, apoE4-KI mouse hippocampus, 0.2 mg/kg i.p. 8 weeks), the “number of significantly perturbed pathways (Ingenuity Pathway Analysis)” value is listed as 71. The “number of enriched pathways shared with apoE4/4 AD in humans” value in test [1] (apoE4-KI mouse hippocampus, 0.2 mg/kg i.p. 8 weeks) stood at 6. Besides, the “mean change in expression rank of genes downregulated in apoE4/4 AD (n=56)” value in test [1] (apoE4-KI mouse hippocampus, 0.2 mg/kg i.p. 8 weeks vs vehicle) was “not significantly shifted away from zero”. Moreover, in test [1] (apoE4-KI mouse hippocampus, 0.2 mg/kg i.p. 8 weeks vs vehicle, mean of all genes zero, P<0.001 Monte Carlo, shift toward lower expression), the “average change in expression rank of the 157 genes upregulated in apoE4/4 human AD” value is 49.76. For the same compound, the “number of those pathways also enriched in apoE4/4-mediated AD in humans” value in test [2] (0.2 mg/kg daily i.p. 8 weeks) is reported as 19. Moreover, in test [2] (0.2 mg/kg daily i.p. 8 weeks, P<0.05 Monte Carlo), the “number of cell types (of 18 clusters) in which apoE4/4 AD signature genes were flipped” value came out at 12. Besides, in test [2] (p<0.005, 0.2 mg/kg daily i.p. 8 weeks), the “number of ontological pathways enriched in at least one neuronal cell type with significant flip” value is reported as 104.

The record behind these values is US12544348B2, “Methods for treating APOE4/4-associated disorders” (The Regents of the University of California, priority 2018, dated 2026).
